Experimental data reported in patent publication US20170307610A1, “COMPOUNDS THAT BIND DYSTROGLYCAN AND USES THEREOF” (OREGON HEALTH & SCIENCE UNIVERSITY, priority 2014, published 2017).
Peptide text beside a SMILES is read from it. * marks the point of attachment. Cbz = O=C(OCc1ccccc1)*

Key:
Assay type in all cases: cell-based, mouse
E3D1 MECs [1] = test: Steady-state laminin internalization, flow cytometry; conditions: 18 hrs; for MFI of steady-state laminin endocytosis in presence of MMP inhibitor: GM6001 50 μM (vehicle 20.2±1.82, n=4), BB2416 5 μM (vehicle 20.85, n=2); for effect of MMP inhibitor on steady-state laminin endocytosis: GM6001 50 μM, BB2416 5 μM
Procedure: Endocytic internalization of laminin was confirmed by multiple methods. Laminin was labeled with the pH-sensitive fluorescent label CypHer-5 (CyPher-Ln) to exclusively image internalized laminin in attached, living cells. The fluorophore CypHer-5 is non fluorescent at pH 7.4 and maximally fluorescent at pH 5.5, permitting fluorescence detection of laminin within intracellular acidic vesicles (pH 4.8-6.0). Following overnight incubation of MECs with CypHer-Ln, live cell imaging detected bright fluorescent vesicles moving rapidly within the cytoplasm (FIG. 3A). Intracellular laminin within the cytoplasm was also independently observed via removal of surface bound laminin followed by confocal imaging. MECs were exposed to 10 μg/ml Rhod-Ln for 18 hrs, trypsinized, washed with PBS/EDTA to remove surface-bound laminin, allowed to re-attach, and stained with the membrane marker FITC-concanavalin A (conA). […] This method of cell treatment permitted a quantitative, flow cytometry-based assay of laminin internalization. In this assay, cells incubated with Rhod-Ln were trypsinized, washed (as in FIG. 3B), and the remaining internal Rhod-Ln fluorescence quantified by flow cytometry. Using this assay, laminin internalization was confirmed in diverse cell types including in primary mammary epithelial cultures, mammary epithelial cell lines (E3D1, MEpG), […] fibroblasts (NIH 3T3 cells), primary astrocytes, and human cancer cell lines (breast and glioma).
(§1) To explore the dynamics of laminin internalization, steady-state time course experiments (measuring internalization in the continuous presence of labeled laminin) and pulsed time course experiments were performed. In pulsed time course experiments, the cells were exposed to exogenous Rhod-Ln at 4° C. to prevent internalization, excess unbound Rhod-Ln was washed away, and then cells were returned to 37° C. to allow synchronized internalization and trafficking to proceed. […] Following pulsed and synchronized laminin exposure, Rhod-Ln was again observed to internalize within 1 hour, but reached a maximum at 8 hours, after which the levels of internal laminin declined (FIG. 4A). After 24 hours, internal Rhod-Ln levels declined to ˜37% of the maxima, indicating degradation (MFI: 315±3.5 to 119±11.5). To determine if laminin was degraded using classical degradation pathways, pulsed time course experiments in the presence of leupeptin (lysosome inhibitor) or […] (proteasome inhibitor) were performed.
Laminin internalization could be mediated by either receptor-dependent or receptor independent mechanisms (e.g. pinocytosis). Steady-state laminin internalization was measured using flow cytometry in the presence of potential inhibitors and compared to internalization of 500S FITC-dextran, a molecule of similar molecular size to laminin known to be endocytosed by receptor-independent mechanisms. The specific inhibitor of dynamin, dynasore (Macia E et al, Dev Cell, 839-850 (2006); incorporated by reference herein), inhibited internalization of laminin by >75% (FIG. 6A). Under hypertonic sucrose, a condition known to inhibit receptor-mediated endocytosis (Heuser J E and Anderson R G, J Cell Biol 108, 389-400 (1989); incorporated by reference herein) laminin internalization was reduced by 65% (FIG. 6A). Addition of heparin, a molecule known to bind the laminin LG4-5 domain (Harrison D et al, J Biol Chem 282, 11573-11581 (2007); incorporated by reference herein), decreased laminin internalization by 69% relative to controls (FIG. 6A). […] Specifically, under steady state, laminin internalization was nearly linear throughout the 24 hour time course, whereas dextran internalization plateaued after 16 hrs.
Flow Cytometry—Cells were plated in 12 well plates at 200,000 cells/well. The following day, media was changed to serum-free media with or without 10 μg/ml rhodamine laminin or 40 μg/ml FITC-dextran (500S-Sigma-Aldrich Corp., St. Louis, Mo., USA). […]

E3D1 MECs [2] = test: Pulsed time course of Rhod-Ln internalization, flow cytometry; conditions: pulsed, 24 hrs post laminin labeling, n=4; for MFI of internal Rhod-Ln in presence of inhibitor: vehicle 105.5±3
Procedure: as §1
Laminin labeling—Laminin-111 (1 mg) (Sigma-Aldrich Corp., St. Louis, Mo., USA) was dialyzed twice overnight against 500 ml of PBS with 10 μM CaCl2. The dialyzed laminin was then reacted with 10 μg NHS-rhodamine, or a 50 fold molar excess of NHS409 CypHer5 (GE) for 2 hr on ice, followed by dialysis twice overnight against 500 ml of PBS with 10 μM CaCl2.
Flow Cytometry—Cells were plated in 12 well plates at 200,000 cells/well. The following day, media was changed to serum-free media with or without 10 μg/ml rhodamine laminin or 40 μg/ml FITC-dextran (500S-Sigma-Aldrich Corp., St. Louis, Mo., USA). Unless otherwise indicated, cells were incubated 18-24 hrs, washed once with PBS, and cells trypsinized. Cells were washed in 5 ml cold PBS/1 mM EDTA, pelleted, and resuspended in 1 ml PBS/1 mM EDTA. Using a BD FACScan flow cytometer (BD Biosciences, San Jose, Calif., USA), 10,000 cells/well were counted, background fluorescence from the cell counts with no added laminin subtracted and the mean fluorescence intensity values reported. Graphed data are compiled from duplicate wells from each experiment with a minimum of three separate experiments, unless indicated otherwise.

E3D1 MECs [3] = test: FITC-dextran (500S) internalization, flow cytometry; conditions: steady state, 24 hour time course
Procedure: Laminin internalization could be mediated by either receptor-dependent or receptor independent mechanisms (e.g. pinocytosis). Steady-state laminin internalization was measured using flow cytometry in the presence of potential inhibitors and compared to internalization of 500S FITC-dextran, a molecule of similar molecular size to laminin known to be endocytosed by receptor-independent mechanisms. The specific inhibitor of dynamin, dynasore (Macia E et al, Dev Cell, 839-850 (2006); incorporated by reference herein), inhibited internalization of laminin by >75% (FIG. 6A). Under hypertonic sucrose, a condition known to inhibit receptor-mediated endocytosis (Heuser J E and Anderson R G, J Cell Biol 108, 389-400 (1989); incorporated by reference herein) laminin internalization was reduced by 65% (FIG. 6A). Addition of heparin, a molecule known to bind the laminin LG4-5 domain (Harrison D et al, J Biol Chem 282, 11573-11581 (2007); incorporated by reference herein), decreased laminin internalization by 69% relative to controls (FIG. 6A). […]
Flow Cytometry—Cells were plated in 12 well plates at 200,000 cells/well. […] Using a BD FACScan flow cytometer (BD Biosciences, San Jose, Calif., USA), 10,000 cells/well were counted, background fluorescence from the cell counts with no added laminin subtracted and the mean fluorescence intensity values reported. […]

[4] = Mus musculus, steady-state, 10 μg/ml Rhod-Ln, 40 μM dynasore, 320 mM sucrose, 100 μg/ml heparin

Compound: CNC(=O)[C@@H](NC(=O)[C@H](CC(C)C)[C@H](O)C(=O)NO)C(C)(C)C [BB2416]
- MFI of steady-state laminin endocytosis in presence of MMP inhibitor (E3D1 MECs [1]): 20.46
- effect of MMP inhibitor on steady-state laminin endocytosis (E3D1 MECs [1]): no significant effect

Compound: CNC(=O)[C@H](Cc1c[nH]c2ccccc12)NC(=O)[C@@H](CC(=O)NO)CC(C)C [GM6001]
- MFI of steady-state laminin endocytosis in presence of MMP inhibitor (E3D1 MECs [1]): 18.62±1
- effect of MMP inhibitor on steady-state laminin endocytosis (E3D1 MECs [1]): no significant effect

Compound: CC(C)C[C@@H](C=O)NC(=O)[C@H](CC(C)C)NC(=O)[C@H](CC(C)C)NC(=O)OCc1ccccc1 [MG-231] (Cbz-Leu-Leu-Leu-aldehyde)
- increase in internal Rhod-Ln compared to vehicle controls (E3D1 MECs [2]): 59%
- MFI of internal Rhod-Ln in presence of inhibitor (E3D1 MECs [2]): 167.5±7

Compound: O=C(N/N=C/c1ccc(O)c(O)c1)c1cc2ccccc2cc1O [dynasore]
- inhibition at 40 µM (E3D1 MECs [1]; [4]): > 75%

Compound: CC(=O)N[C@@H](CC(C)C)C(=O)N[C@@H](CC(C)C)C(=O)N[C@H](C=O)CCCNC(=N)N [leupeptin]
- increase in internal Rhod-Ln compared to vehicle controls (E3D1 MECs [2]): 153%
- MFI of internal Rhod-Ln in presence of inhibitor (E3D1 MECs [2]): 266±11.2

Compound: OC[C@H]1O[C@@](CO)(O[C@H]2O[C@H](CO)[C@@H](O)[C@H](O)[C@H]2O)[C@@H](O)[C@@H]1O [sucrose]
- inhibition at 320000 µM (E3D1 MECs [1]; [4]): 65%

Compound: FITC-dextran
- time to plateau of dextran internalization (E3D1 MECs [3]): > 16 h

Compound: heparin
- inhibition of laminin internalization (E3D1 MECs [1]; steady-state, 10 μg/ml Rhod-Ln, 40 μM dynasore, 320 mM sucrose, 100 μg/ml heparin): 69%
